Read-outs that look alike come from different tables or passages of the source.
Columns and labels:
in vivo = details: both, NIH, mouse, iv
Procedure: Blood was collected from the retro-orbital plexus at designated time points and they were kept in cold heparin coated glass tubes. The blood from 1 male and 1 female was pooled and plasma was isolated and stored at −80°C until analysis. […] Pharmacokinetic parameters was determined from the concentration-time data by non compartment model using the 3P97 software (Practical Pharmacokinetics Software, Beijing, China).

liver = test: Swiss mice hepatotoxicity model; details: after 2 weeks, liver tissues
HepG2 cells [1] = test: Doxorubicin and rhodamine 123 accumulation by flow cytometry in parental cells; assay type: cell-based, human; details: in the presence of lapatinib
Procedure: The human hepatocellular carcinoma cell line HepG2 was obtained from American Type Culture Collection (ATCC). The Dox-selected derivative ABCB1-overexpressing HepG2/Adr subline was established as previous study. All cells were grown in DMEM supplemented with 10% fetal bovine serum, 100 units/mL streptomycin sulfate and 100 units/mL penicillin G sulfate, and maintained at 37°C in the presence of 5% CO2. HepG2/Adr cells were cultured with 1.2 μM Dox to maintain its ABCB1-overexpressing properties. All cells were grown in drug-free culture medium for more than 2 weeks before assay.
The accumulation of doxorubicin or rhodamine 123 in HepG2 and HepG2/Adr cells was measured as previously described. Verapamil, a known ABCB1 inhibitor, was used as a positive control.

Swiss mice liver tissues = test: Ex vivo doxorubicin accumulation in Swiss mice liver tissues; details: 2.5 μM lapatinib, 10 μM doxorubicin
Procedure: The fresh normal liver tissue adjacent to the hepatocellular carcinoma retrieved from Sun Yat-sen university cancer center was used for the drug accumulation assay ex vivo. Informed consent was obtained from the patients before tissue collection. The work was approved by the ethics review committee at Sun Yat-sen University (Guangzhou, China). Liver tissues of 50-100 mg were cut into small pieces (1mm^3) and cultured in DMEM containing 15% fetal bovine serum at 37°C. […] Subsequently, the tissues were then collected, centrifuged and washed twice with cold PBS containing 10 μM verapamil. Then, liver tissues were resuspended in 1 ml/100 mg tissues lysis solution which contained 0.3 mol/l HCl and 60% ethanol (1:1) and was homogenized at 4°C and then centrifuged at 12 000 × g [43]. The supernatant was removed and its fluorescence signal was measured by a spectrofluorometer at λex 470 nm and λem 590 nm. Simultaneously, the standard curve of doxorubicin was made with the same condition. The doxorubicin accumulation in liver tissues (μg/g) was calculated according to the fluorescence value using a standard curve.

HepG2 cells [2] = test: MTT cytotoxicity of doxorubicin with lapatinib, parental cells; assay type: cell-based, human; details: lapatinib added 1 h before doxorubicin
Procedure: (§1) We collected the cells and seeded them at a density of 3.0 × 10^3 cells per well in 96-well plates. […] After 68 h, MTT (5 mg/mL, 20 μL) was added into each well and cultured for another 4 h. Then the medium was discarded and each well was added with 120 μL DMSO. Finally, optical density was measured at 540 nm with background subtraction at 670 nm by Model 550 Microplate Reader (Bio-Rad, Hercules, CA, USA).

[3] = molecular target: T1, ABCB1-overexpressing HepG2/Adr cells (Homo sapiens, UniProt P08183); test: MTT cytotoxicity of doxorubicin with lapatinib, resistant cells; assay type: cell-based; details: lapatinib added 1 h before doxorubicin
T1 construct: The Dox-selected derivative ABCB1-overexpressing HepG2/Adr subline was established as previous study; endogenous in cells; host or cells: HepG2/Adr (doxorubicin-selected subline of human HepG2)
T1 sequence (P08183 whole entry): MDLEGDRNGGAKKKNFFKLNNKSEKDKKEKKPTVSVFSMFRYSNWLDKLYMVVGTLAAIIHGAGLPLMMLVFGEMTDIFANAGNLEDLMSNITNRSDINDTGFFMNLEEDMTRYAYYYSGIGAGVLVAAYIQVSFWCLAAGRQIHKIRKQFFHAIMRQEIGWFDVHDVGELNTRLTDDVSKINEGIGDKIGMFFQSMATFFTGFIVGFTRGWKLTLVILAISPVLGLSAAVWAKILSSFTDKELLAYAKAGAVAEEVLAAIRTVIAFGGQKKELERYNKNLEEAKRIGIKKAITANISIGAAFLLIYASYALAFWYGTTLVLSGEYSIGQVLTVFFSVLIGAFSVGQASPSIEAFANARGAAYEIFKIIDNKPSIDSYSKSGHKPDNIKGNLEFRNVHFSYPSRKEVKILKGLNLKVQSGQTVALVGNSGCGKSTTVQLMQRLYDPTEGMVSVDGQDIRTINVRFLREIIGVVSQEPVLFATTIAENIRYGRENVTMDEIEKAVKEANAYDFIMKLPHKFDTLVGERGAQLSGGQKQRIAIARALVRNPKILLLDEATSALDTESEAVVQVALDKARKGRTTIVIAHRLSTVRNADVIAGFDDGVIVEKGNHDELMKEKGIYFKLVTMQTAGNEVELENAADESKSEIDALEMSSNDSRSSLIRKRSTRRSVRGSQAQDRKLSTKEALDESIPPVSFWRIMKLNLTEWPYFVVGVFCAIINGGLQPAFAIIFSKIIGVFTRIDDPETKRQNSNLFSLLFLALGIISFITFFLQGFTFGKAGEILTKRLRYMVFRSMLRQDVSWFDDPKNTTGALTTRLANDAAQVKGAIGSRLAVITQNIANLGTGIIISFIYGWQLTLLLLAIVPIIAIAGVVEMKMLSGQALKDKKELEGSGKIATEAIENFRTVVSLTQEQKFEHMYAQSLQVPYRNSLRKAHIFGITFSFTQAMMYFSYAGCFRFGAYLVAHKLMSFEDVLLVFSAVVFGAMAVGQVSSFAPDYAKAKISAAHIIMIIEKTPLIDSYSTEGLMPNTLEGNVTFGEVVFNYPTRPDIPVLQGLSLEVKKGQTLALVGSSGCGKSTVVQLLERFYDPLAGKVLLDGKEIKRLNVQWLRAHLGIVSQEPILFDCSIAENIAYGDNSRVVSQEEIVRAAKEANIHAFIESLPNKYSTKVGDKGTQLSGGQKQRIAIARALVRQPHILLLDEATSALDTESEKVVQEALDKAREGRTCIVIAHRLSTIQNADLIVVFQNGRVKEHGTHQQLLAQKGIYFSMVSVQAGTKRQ
Procedure: as §1

[4] = human pharmacokinetic studies ref 35, 36; cited from earlier work
ABCB1 = ABCB1 expression by Western blot and qRT-PCR; assay type: cell-based, human; details: HepG2/Adr cells, lapatinib for 24, 48 or 72 h
Procedure: After being incubated in blocking solution containing 5% non-fat milk in TBST buffer (10 mM Tris-HCL (pH 8.0), 150 mM NaCl, and 0.1% Tween 20) for 2 h at room temperature, membranes were incubated with primary antibody ABCB1 (1:1000 dilution, Santa Cruz Biotechnology) and GAPDH (1:5000 dilution, Kangcheng Biotechnology). The membranes were then incubated for 2 h with HRP-conjugated secondary antibody at 1:5000 dilution. Immunoreactive bands were visualized by the enhanced Phototope TM-HRP Detection Kit (Cell Signaling, USA) and exposed to Kodak medical X-ray processor (Carestream Health, USA). Protein expression was quantified by Scion Image software (Scion Co, USA).
Total cellular RNA was isolated by Trizol Reagent (Gibco BRL, USA) RNA extraction kit following manufacture instruction. cDNA were prepared from the sensitive HepG2 and the resistant HepG2/Adr cells. Reverse transcription was done with reverse transcriptase (Promega Corp., Madison, WI). Oligonucleotides primers for ABCB1 and GAPDH were synthesized commercially (Invitrogen Co., China). They included ABCB1 (homo sapiens), sense primer, 5′-[sequence]-3′, antisense primer, 5′-[sequence]-3′; Abcb1 (mus), sense primer, 5′-[sequence]-3′, antisense primer, 5′-[sequence]-3′; GAPDH, sense primer, 5′-[sequence]-3′, antisense primer, 5′-[sequence]-3′. […] Relative quantification of ABCB1 was performed using the 2^−ΔΔCt method [46]. […]

[5] = Adverse events in the hepatobiliary system in patients with HER2-overexpressing metastatic breast cancer; details: text count, cohort of 39 patients

| AUC(0-inf) (in vivo; in vivo, 10 mg/kg) [ng·h/mL] | AUC(0-t) (in vivo; in vivo, 10 mg/kg) [ng·h/mL] | Vd (in vivo; in vivo, 10 mg/kg) [L] | MRT (in vivo; plasma, 10 mg/kg) [h] | half-life (in vivo; plasma, 10 mg/kg) [h] | MRT (in vivo; in vivo, 18 mg/kg) [h] | Vd (in vivo; in vivo, 18 mg/kg) [L] | clearance (in vivo; in vivo, 18 mg/kg) [mL/min] | half-life (in vivo; in vivo, 18 mg/kg) [h] | SMILES | liver histology (HE staining) (liver) | intracellular accumulation of doxorubicin (HepG2 cells [1]) | intracellular accumulation of rhodamine 123 (HepG2 cells [1]) | increase of fluorescent index of doxorubicin (Swiss mice liver tissues) [fold] | effect on cytotoxicity of doxorubicin (HepG2 cells [2]) | effect on cytotoxicity of doxorubicin [3] | half-life [4] | highest peak plasma lapatinib concentration [4] | ABCB1 RNA and protein expressions (ABCB1) | patients who showed grade 1 abnormal hepatic function [5] [patients] |
| --- | --- | --- | --- | --- | --- | --- | --- | --- | --- | --- | --- | --- | --- | --- | --- | --- | --- | --- | --- |
| 2960 ± 878 | 2920 ± 841 | 0.00339 ± 0.00121 | 7.51 ± 1.08 | 5.2 ± 0.75 |  |  |  |  | COc1cccc2c1C(=O)c1c(O)c3c(c(O)c1C2=O)C[C@@](O)(C(=O)CO)C[C@@H]3O[C@H]1C[C@H](N)[C@H](O)[C@H](C)O1 [Doxorubicin] | mild central venous hyperemia, Hepatic cord disorder and vacuolar degeneration |  |  |  |  |  |  |  |  |  |
|  |  |  |  |  |  |  |  |  | CS(=O)(=O)CCNCc1ccc(-c2ccc3ncnc(Nc4ccc(OCc5cccc(F)c5)c(Cl)c4)c3c2)o1 [Lapatinib] |  | not altered | not altered | 2.46 | not in the parental HepG2 cells | enhance the cytotoxicity effect of doxorubicin in HepG2/Adr cells in a concentration-dependent manner | approximately 17 h | roughly 3 μM | not significantly altered |  |
|  |  |  |  |  | 1.42 ± 0.08 | 0.015 ± 0.00128 | 0.139 | 1.24 ± 0.06 | CC(=O)O[C@H]1C(=O)[C@@]2(C)[C@H]([C@H](OC(=O)c3ccccc3)[C@]3(O)C[C@H](OC(=O)[C@H](O)[C@@H](NC(=O)c4ccccc4)c4ccccc4)C(C)=C1C3(C)C)[C@]1(OC(C)=O)CO[C@@H]1C[C@@H]2O [Paclitaxel, paclitaxel] | mild liver damage |  |  |  |  |  |  |  |  | 2 |

— article PMC4627342 (Oncotarget, 2015)
